Where two headings read alike, the source gives them in different places.
Tests used:
[1] = Diffusion of 32P-ribozyme across a liposome membrane (liposome-associated radioactivity); assay type: in vitro ADME
Text: The ribozyme was a 36 mer containing five 2'-O-methyl riboses at the 5' end and the 3' end. The ratio of permeability enhancer molecules per mole of phosphate was about 20:1.

HeLa cells = assay: Diffusion of 32P-ribozyme into HeLa cells (cell associated radioactivity); assay type: cell-based; conditions: 20 molecules enhancer per mole of ribozyme phosphate; pH about 4, diluted in DMEM without serum; 1 hour at 37° C., 5% CO2
Procedure: This example illustrates the ability of an enhancer to facilitate the diffusion of a ribozyme into HeLa cells. […] The sample was diluted up to 1 ml with DMEM media containing no serum and added to HeLa cells. A control was run containing ^32 P-ribozyme without enhancer. Cells were incubated for 1 hour at 37° C. in 5% CO2. The cells were washed 3 times with serum free media and solubilized with 0.5 ml of 1% triton.

[2] = not told
Procedure: Specifically, twenty μg of ^32 P radiolabeled ribozyme (1.68×10^-9 moles) was incubated with 1.2×10^-6 moles of permeability enhancer in 50 μl of water to give a pH of about 4. Incubation was carried out at 25° C. for 15 minutes. After the incubation, 1×10^-11 moles of dioleoylphosphatidylcholine liposomes was added to the 50 μl solution. The solution was diluted to 100 μl with 20 mM HEPES (pH 7.4) and centrifuged in a microfuge for 5 minutes to pellet the liposomes. The supernatant was removed and the lipid pellets were washed with 100 μl of 20 mM HEPES (pH 7.4). The lipid pellets were solubilized in 1% Triton X-100 and the amount of radioactivity associated with the lipid pellets was measured. The amount of associated radioactivity reflects the amount of diffusion across the liposome membrane.
A titration of the permeability enhancer to ribozyme was performed by holding the amount of ribozyme constant and increasing the molar charge ratio of the permeability enhancer (aminocaprylic acid) to ribozyme. The experiment was carried out as described above using different amounts of enhancer.

[3] = ratio of permeability enhancer per mole of phosphate about 20:1, pH about 4, 25° C., 15 minutes, 32P ribozyme (36 mer)

Row | % Liposome Associated [1] [%] | SMILES | % Liposome Associated [1, 3] [%] | also measured
1 | 0.53 | NCCCC(=O)O [Aminobutyric Acid] | – | –
2 | – | NCCCCCC(=O)O [Aminocaproic Acid] | 0.70 | –
3 | – | NCCCCCCCC(=O)O [Aminocaprylic Acid] | 9.54 | degree of membrane association (in words) ([1]; ribozyme, enhancer to phosphate about 20:1): highest degree of membrane association; amount of cell associated radioactivity, enhancer:ribozyme versus ribozyme alone (HeLa cells): 3 fold; membrane association on increasing the ratio of enhancer to ribozyme (in words) [2]: concomitant increase in membrane association
4 | – | NCC(=O)O [glycine] | 0.55 | –
5 | 2.54 | Nc1cccc(C(=O)O)c1 [m-Aminobenzoic Acid] | – | –

Row | SMILES | % Liposome Associated [1] [%] | % Liposome Associated [1, 3] [%] | also measured
6 | O=C(O)/C=C/c1c[nH]cn1 [Urocanic Acid] | 0.95 | – | –

— patent US5583020A, “Permeability enhancers for negatively charged polynucleotides” (Ribozyme Pharmaceuticals, Inc., priority 1993, dated 1996)
